These results are taken from ChEMBL document CHEMBL1629429, “SAR studies of gymnasterkoreayne derivatives with cancer chemopreventive activities” (Bioorg Med Chem Lett, 2010).

One may read the pIC50 as the IC50 on a negative log10 scale, so that one unit is a factor of ten. Low values mean a high IC50, high ones a low IC50.

Assay [1] can be described thus: Chemoprevention index, ratio of IC50 for mouse Hepa-1c1c7 cells to drug level required to double specific NADPH:quinone reductase activity in mouse Hepa-1c1c7 cells. The assay is classed as functional.
Assay [2] can be described thus: Cytotoxicity against mouse Hepa-1c1c7 cells. The format is cell-based.

Each structure is given as a SMILES string. pIC50: −log10 of the molar value.

In the case of `C[C@H](O)[C@H](O)C#CC#CC(O)C1CCCCC1` (relative stereo), the “Ratio IC50” value in assay [1] is on record as greater than 3.8. In addition, the negative logarithm of the IC50 (pIC50) in assay [2] is less than 3.30. As for `CC(C)=CC(O)C#CC#C[C@@H](O)[C@H](C)O` (relative stereo), the “Ratio IC50” value in assay [1] was found to be 17.02. The compound further had a negative logarithm of the IC50 (pIC50) in assay [2] of 3.39. In the case of `C=CCCCCC/C=C\C(O)C#CC#C[C@@H](O)[C@H](C)O` (relative stereo), the “Ratio IC50” value in assay [1] was determined as 10.51. For the same compound, in assay [2], the pIC50 is 4.05. Taken in the same sequence, the figures for `C[C@H](O)[C@H](O)C#CC#CC(O)Cc1ccccc1` (relative stereo) were greater than 8.64 and less than 3.30. For `C[C@H](O)[C@H](O)C#CC#CC(O)c1ccccc1` (relative stereo), in that order: greater than 13.57 and less than 3.30. Taken in the same sequence, the figures for `CCCCCCCCCC(O)C#CC#C[C@@H](O)[C@H](C)O` (relative stereo) were 7.44 and 4.40. As for `CCCCCC(O)C#CC#C[C@@H](O)[C@H](C)O` (relative stereo), in assay [1], the “Ratio IC50” value was greater than 31.66. For the same compound, the negative-log IC50 (pIC50) in assay [2] was less than 3.30. With `CCCCCCCCCC(O)C#CC#C[C@H](O)[C@H](C)O` (relative stereo), the “Ratio IC50” value in assay [1] is recorded as 30.13. The negative-log IC50 (pIC50) in assay [2] was 4.19. Take `C=CC(O)C#CC#C[C@@H](O)[C@H](C)O` (relative stereo): in assay [1], the “Ratio IC50” value is 1.12. Moreover, the pIC50 in assay [2] was 3.75. For `CCCCCCC(O)C#CC#C[C@@H](O)[C@H](C)O` (relative stereo), in that order: 25.66 and 3.65. For `CCCCCCCCCC(O)CCCC[C@@H](O)[C@H](C)O` (some centres undefined), the pIC50 in assay [2] is less than 3.30. For the compound `C=CCCCCC/C=C\[C@H](O)C#CC#CC1OC1C` (some centres undefined) [GYMNASTERKOREAYNE B], the “Ratio IC50” value in assay [1] is listed as 9.57. Further, the pIC50 in assay [2] is 4.15. Taken in the same sequence, the figures for `CCC/C=C/C(O)C#CC#C[C@@H](O)[C@H](C)O` (some centres undefined) were 14.77 and 3.37. For `C=CCCCCC/C=C\C(O)C#CC#C[C@H](O)[C@H](C)O` (some centres undefined), in that order: 18.39 and 3.60. Take `CCCCCC(O)C#CC#C[C@H](O)[C@H](C)O` (relative stereo): the “Ratio IC50” value in assay [1] is greater than 38.6. Besides, the negative-log IC50 (pIC50) in assay [2] is less than 3.30.
